Laboratory results: PMC7259758 (PLoS ONE, 2020)

Legend:
[1] = system: triple-exon skipping of MDM2 pre-mRNA in SK-MEL-2/Luc-MDM2 cells; experiment: TESLR (Triple Exon Skipping Luciferase Reporter) dose response; settings: for EC50 / IC50: Homo sapiens, SK-MEL-2, 4 h; for EC50: read-out: TESLR EC50; for IC50: read-out: TESLR IC50 in inducing triple exon skipping; for TESLR Maximum fold change: SK-MEL-2/Luc-MDM2 cells, 4 hours, luciferase activity
phosphorylation of SF3B1 = experiment: Western blot of nuclear extracts, phosphor-SF3B1; settings: HCT116 and Rh18 cells, 4 h; SD6 10 μM, compound 1 10 μM, compound 2 5 μM
[2] = system: phosphorylation of SR proteins; experiment: Western blot of nuclear extracts, phosphor-SR proteins; settings: HCT116 and Rh18 cells, 4 h; SD6 10 μM, compound 1 10 μM, compound 2 5 μM, compound 3 10 μM
[3] = system: MDM2 pre-mRNA splicing in Rh18 cells; experiment: RT-PCR confirmation of splicing changes, MDM2; type: cell-based; settings: 4 h, SD6 10 μM, compound 1 10 μM, compound 2 5 μM, compound 3 10 μM
Description: RH-18 cells were cultured in RPMI 1640 medium containing 10% FCS. Cells are all maintained in humidified incubator with 5% CO2 at 37°C. Rh18 cells were exposed to 0.5% DMSO or SD6 10 μM, Cpd1 10 μM, Cpd2 5 μM or Cpd3 10 μM for 4 h. Total RNA was extracted and converted to cDNA. PCR was performed using NEB Q5 Master Mix and specific primers listed below (Table 2) according to the manufacturer’s instruction and standard PCR protocols: 50 ng cDNA and 30 μl of the final reaction volume was used. PCR products were subjected to 3% agarose gel electrophoresis.
AS patterns were identified with compound treatment for MDM2 and RBM39 transcripts. Ubiquitin (UBQ) transcripts were used as a control since these are not spliced. […] Rh18 cells were treated with either DMSO control or compounds for 4 h. Total RNA was extracted and converted to cDNA. PCR was performed using corresponding primers and PCR products were subjected to 3% agarose gel electrophoresis.

SF3B1 = biological target: T1, SF3B1 (Homo sapiens, UniProt O75533+Q7RTV0); experiment: Competitive antagonist assay (TESLR in the presence of SD6 or hit compound); type: cell-based; settings: 1 h pre-treatment with analog, then 4 μM SD6 for another 4 hours; read-out: IC50 for antagonism of SD6 activity in the TESLR assay
T1 construct: endogenous in cells
Description: SK-MEL-2/Luc-MDM2 stable cells were plated at a density of 20,000 cells/well in 96-well plates and incubated overnight at 37°C in 5% CO2.[27, 28] The following day, cells were treated with 14 analogs using serial dilution for one hour. The list of compounds screened as potential TESLR antagonists are show in SI file. After one-hour pre-treatment, 4 μM of SD6 were added to the pre-treated cells for another 4 hours. Either 0.5% DMSO or serial dilutions of SD6 were used to treat cells for 4 hours as controls. At the end of incubation time, ONE-Glo™ EX reagents (Promega) were added to measure the luciferase activity. […]
Fig 6 Competitive antagonist assay. (Left Panel) The assay that identified two antagonists of SD6 activity in the TESLR screen, which are useful for the determination of SF3B1 binding. Relative luminescent units were plotted against corresponding drug concentrations and fitted with a standard four parameter sigmoidal curve with GraphPad Prism. (Right Panel) The structures of the antagonists and SD6. See SI for chemistry details.
. SK-MEL-2/Luc-MDM2 stable cells were plated at a density of 20000/well in 96-well plates and incubated overnight at 37°C in 5% CO2. […]. After one-hour pre-treatment, serial dilutions of the sudemycinol C were added to the pre-treated cells for another 4 hours. […]. At the end of incubation time, ONE-Glo™ EX reagents (Promega) were added to measure the luciferase activity. […]. DR: dose response.

SMILES	IC50 [1] [µM]	EC50 [1] [µM]	TESLR Maximum fold change [1]	further results
CNC(=O)OC(C)C=CC(=O)NC1CCC(CC=C(C)C=CC2CC3(CO3)CC(C)(C)O2)CC1 (centres unmarked) [SD6, sudemycin D6]		0.862	28.3	Effect on phosphorylation of SF3B1 (immunoblot) (phosphorylation of SF3B1): did inhibit the phosphorylation of SF3B1; Effect on phosphorylation of SR proteins (immunoblot) [2]: did not inhibit the phosphorylation of SR proteins; MDM2 alternative splicing (AS) pattern by RT-PCR [3]: dominant AS isoform at size of 1019 bp
CC(C=CC1CC2(CO2)CC(C)(C)O1)=CCC1OCC(NC(=O)C=CC(C)O)CO1 (centres unmarked) [Sudemycinol E, sudemycinol E]				IC50 (SF3B1): 16.1 µM

More lines, main results first:

IC50 [1] [µM]	SMILES	EC50 [1] [µM]	TESLR Maximum fold change [1]	further results
10 to 300	O=C(O)c1ccc2c(c1)nc(Nc1cccc(Cl)c1)c1ccncc12 [silmitasertib]	19.9	31.5	
> 10	CN1CC[C@H](c2c(O)cc(O)c3c(=O)cc(-c4ccccc4Cl)oc23)[C@H](O)C1 [flavopiridol]			
> 10	CC(C)(C)c1cnc(CSc2cnc(NC(=O)C3CCNCC3)s2)o1 [SNS-032]			
